One data set has as its target T1, IL-23R (Homo sapiens, UniProt Q5VWK5).
T1 construct: host or cells: HEK293
T1 sequence (Q5VWK5 24-629): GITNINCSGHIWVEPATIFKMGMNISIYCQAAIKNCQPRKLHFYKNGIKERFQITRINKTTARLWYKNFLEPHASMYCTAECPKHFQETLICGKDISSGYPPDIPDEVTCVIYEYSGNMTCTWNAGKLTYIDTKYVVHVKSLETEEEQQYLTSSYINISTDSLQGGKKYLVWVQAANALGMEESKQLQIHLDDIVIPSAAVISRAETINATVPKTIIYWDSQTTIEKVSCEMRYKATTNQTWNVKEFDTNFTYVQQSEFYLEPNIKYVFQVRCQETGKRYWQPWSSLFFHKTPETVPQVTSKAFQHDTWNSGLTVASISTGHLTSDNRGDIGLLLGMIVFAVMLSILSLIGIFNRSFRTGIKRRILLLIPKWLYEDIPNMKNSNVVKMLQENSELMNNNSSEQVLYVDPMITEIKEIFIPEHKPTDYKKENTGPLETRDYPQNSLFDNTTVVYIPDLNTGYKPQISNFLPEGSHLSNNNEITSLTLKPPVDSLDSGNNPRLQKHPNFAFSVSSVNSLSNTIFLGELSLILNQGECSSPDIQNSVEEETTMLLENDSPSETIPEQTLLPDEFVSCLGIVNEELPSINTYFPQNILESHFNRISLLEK
As to the kind of experiment: IL23R Reporter Assay. Type of data set: cell-based. As to conditions: HEK293 cells containing IL-23R, IL-12RP1 and STAT-inducible firefly luciferase reporter; 10 ng/mL IL-23 (EC90); 5 h at 37° C.; read-out: IL23R Reporter Assay.

The nature of data set [1]: Exposed Polar Surface Area (EPSA). Type of data set: physicochemical. Conditions: SFC on Chirex 3014 column; sample 1 mM DMSO stock; read-out: EPSA. The gist of the method: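 Compounds, as 1 mM DMSO stock, were injected in duplicate onto an SFC Chirex 3014 column at 35 °C and eluted with a CO2/methanol (20 mM ammonium formate) gradient. EPSA values in Å^2 were derived from retention times using a linear fit to eight calibration standards, reinjected every 20 compounds.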

SMILES strings stand for the structures. Structures can show the parent of a compound that is named as a salt. Starred links: 1 amine or outer side, 2 acyl side, 3 side chain; linkers in the order of their positions; H or OH if unused. Positions of bridges follow the written chain, without caps; N, C: chain ends. Non-standard residues stand in square brackets, D forms with d. Residues, ends and D or L forms follow the SMILES beside them. *: point of attachment. Me3N+(CH2)2O(CH2)2O(CH2)2CO = C[N+](C)(C)CCOCCOCCC(=O)*; CH2CH2OCH2CH2OCH2CH2NMe3+ = C[N+](C)(C)CCOCCOCC*; X21 = O=C([C@H](Cc1cncc(C(F)(F)F)c1)N[*:1])[*:2]; Trp(7-Me) = Cc1cccc2c(C[C@H](N)C(=O)O)c[nH]c12; dLys(Me3) = C[N+](C)(C)CCCC[C@@H](N)C(=O)O; 2Nal = N[C@@H](Cc1ccc2ccccc2c1)C(=O)O; AEF = NCCOc1ccc(C[C@H](N)C(=O)O)cc1; X19 = C[N+](C)(C)C[C@@H](CC(=O)O)N*; X26 = C[N+](C)(C)CCCCc1cn(CC*)nn1; 3Pal = N[C@@H](Cc1cccnc1)C(=O)O; Lys(Me) = CNCCCC[C@H](N)C(=O)O; Pen = CC(C)(S)[C@H](N)C(=O)O; Thp = NC1(C(=O)O)CCOCC1; Dap = NC[C@H](N)C(=O)O; Me2NCH2CH2 = CN(C)CC*; Tfa = O=C(C(F)(F)F)*; Sar = CNCC(=O)O

In the case of `CC(=O)NCCCC[C@@H]1NC(=O)[C@H](Cc2c[nH]c3c(C)cccc23)NC(=O)[C@H]([C@@H](C)O)NC(=O)[C@H](CC(N)=O)NC(=O)[C@@H](NC(=O)C(F)(F)F)C(C)(C)SSC(C)(C)[C@@H](C(=O)N[C@@H](Cc2ccc(OCCN)cc2)C(=O)N[C@@H](Cc2ccc3ccccc3c2)C(=O)NC2(C(=O)N[C@@H](CCCCNC(C)=O)C(=O)N[C@@H](CC(N)=O)C(=O)N[C@@H](Cc3cncc(C(F)(F)F)c3)C(=O)N(C)CC(N)=O)CCOCC2)NC1=O` [compound 56] (Tfa-[Pen]NT[Trp(7-Me)]K(Ac)[Pen][AEF][2Nal][Thp]K(Ac)N[X21][Sar]-NH2; disulfide 1-6 (inferred)), on IL-23R, the IC50 turned out to be 5.7 nM. Also, in data set [1], the EPSA amounted to 158 A^2.

With `CC(=O)NCCCC[C@@H]1NC(=O)[C@H](Cc2c[nH]c3c(C)cccc23)NC(=O)[C@H]([C@@H](C)O)NC(=O)[C@H](CC(N)=O)NC(=O)[C@@H](NC(=O)COc2ccc(-c3ccc(F)cc3F)cc2C(=O)O)C(C)(C)SSC(C)(C)[C@@H](C(=O)N[C@@H](Cc2ccc(OCCCCC[N+](C)(C)C)cc2)C(=O)N[C@@H](Cc2ccc3ccccc3c2)C(=O)NC2(C(=O)N[C@@H](CCCCNC(C)=O)C(=O)N[C@@H](CC(N)=O)C(=O)N[C@@H](Cc3cccnc3)C(=O)N(C)CC(N)=O)CCOCC2)NC1=O` [compound 527, DFNCO-Pen(3)-N-T-7MeW-K(Ac)-Pen(3)-TMAPF-2Nal-THP-K(Ac)-N-3Pya-Sar-CONH2], the IC50 on IL-23R was 3.7 nM. Also, the EPSA in data set [1] was 189 A^2.

On to `CC(=O)N(C)CCCC[C@@H]1NC(=O)[C@H](Cc2ccccc2)NC(=O)[C@H]([C@@H](C)O)NC(=O)[C@H](CC(=O)N(C)C)NC(=O)[C@@H](NC(=O)CCOCCOCC[N+](C)(C)C)C(C)(C)SSC(C)(C)[C@@H](C(=O)N[C@@H](Cc2ccc(OCCOCCOCC[N+](C)(C)C)cc2)C(=O)N[C@@H](Cc2ccccc2)C(=O)NC2(C(=O)N[C@@H](CCCCN(C)C(C)=O)C(=O)N[C@@H](CC(N)=O)C(=O)N[C@@H](Cc3cccnc3)C(=O)N(C)CC(=O)N(C)C)CCOCC2)NC1=O` [compound 565, cPEG3aCO-Pen(3)-N(N(Me)2)-T-F-K(NMeAc)-Pen(3)-APEG3F-F-THP-K(NMeAc)-N-3Pya-Sar-CON(Me)2] ({Me3N+(CH2)2O(CH2)2O(CH2)2CO}-[Pen]D(NMe2)TF[Lys(Me)](Ac)[Pen]Y(CH2CH2OCH2CH2OCH2CH2NMe3+)F[Thp][Lys(Me)](Ac)N[3Pal][Sar]-NMe2; disulfide 1-6), for which the IC50 at IL-23R was more than 16600 nM. Besides, the EPSA in data set [1] was 144 A^2.

Regarding `CC(=O)NC(COCCOCC[N+](C)(C)C)C(=O)N[C@@H]1C(=O)N[C@@H](CC(=O)N(C)C)C(=O)N[C@@H]([C@@H](C)O)C(=O)N[C@@H](Cc2c[nH]c3c(C)cccc23)C(=O)N[C@@H](CCCCN(C)C(C)=O)C(=O)N[C@H](C(=O)N[C@@H](Cc2ccc(OCCOCCOCC[N+](C)(C)C)cc2)C(=O)N[C@@H](Cc2ccc3ccccc3c2)C(=O)NC2(C(=O)N[C@@H](CCCCN(C)C(C)=O)C(=O)N[C@@H](CC(N)=O)C(=O)N[C@@H](Cc3cccnc3)C(=O)N(C)CC(=O)N(C)C)CCOCC2)C(C)(C)SSC1(C)C` (relative stereo) [compound 319, MeCO-APEG2Ser(R*)-Pen(3)-N(N(Me)2)-T-7MeW-K(NMeAc)-Pen(3)-APEG3F-2Nal-THP-K(NMeAc)-N-3Pya-Sar-CON(Me)2], the IC50 on IL-23R was 1.8 nM. Moreover, the EPSA in data set [1] was 151 A^2.

With `CC(=O)NCCCC[C@@H]1NC(=O)[C@H](Cc2c[nH]c3c(C)cccc23)NC(=O)[C@H]([C@@H](C)O)NC(=O)[C@H](CC(N)=O)NC(=O)[C@@H](NC(=O)[C@@H](CCC(=O)N[C@H](CC(=O)O)C[N+](C)(C)C)NC(C)=O)C(C)(C)SSC(C)(C)[C@@H](C(=O)N[C@@H](Cc2ccc(OCCN)cc2)C(=O)N[C@@H](Cc2ccc3ccccc3c2)C(=O)NC2(C(=O)N[C@@H](CCCCNC(C)=O)C(=O)N[C@@H](CC(N)=O)C(=O)N[C@@H](Cc3cccnc3)C(=O)N(C)CC(N)=O)CCOCC2)NC1=O` [compound 125] (Ac-[dE](X19)[Pen]NT[Trp(7-Me)]K(Ac)[Pen][AEF][2Nal][Thp]K(Ac)N[3Pal][Sar]-NH2; disulfide 2-7 (inferred)), the IC50 at IL-23R was 2 nM. Moreover, the EPSA in data set [1] amounted to 181 A^2.

Take `CC(=O)NCCCC[C@@H]1NC(=O)[C@H](Cc2c[nH]c3c(C)cccc23)NC(=O)[C@H]([C@@H](C)O)NC(=O)[C@H](CC(N)=O)NC(=O)[C@@H](NC(=O)CCOCCOCC[N+](C)(C)C)C(C)(C)SSC(C)(C)[C@@H](C(=O)N[C@@H](Cc2ccc(OCCN)cc2)C(=O)N[C@@H](Cc2ccc3ccccc3c2)C(=O)NC2(C(=O)N[C@@H](CCCCNC(C)=O)C(=O)N[C@@H](CC(N)=O)C(=O)N[C@@H](Cc3cccnc3)C(=O)N(C)CC(N)=O)CCOCC2)NC1=O` [compound 90, cPEG3aCO-Pen(3)-N-T-7MeW-K(Ac)-Pen(3)-AEF-2Nal-THP-K(Ac)-N-3Pya-Sar-CONH2] ({Me3N+(CH2)2O(CH2)2O(CH2)2CO}-[Pen]NT[Trp(7-Me)]K(Ac)[Pen][AEF][2Nal][Thp]K(Ac)N[3Pal][Sar]-NH2; disulfide 1-6): at IL-23R, the IC50 was 3.7 nM. In data set [1], the EPSA was 164 A^2.

`CC(=O)NCCCC[C@@H]1NC(=O)[C@H](Cc2c[nH]c3c(C)cccc23)NC(=O)[C@H]([C@@H](C)O)NC(=O)[C@H](CC(N)=O)NC(=O)[C@@H](NC(=O)COCCOCCNC(=O)COCCOCCNC(=O)CCCc2ccc(I)cc2)C(C)(C)SSC(C)(C)[C@@H](C(=O)N[C@@H](Cc2ccc(OCCCCC[N+](C)(C)C)cc2)C(=O)N[C@@H](Cc2ccc3ccccc3c2)C(=O)NC2(C(=O)N[C@@H](CCCCNC(C)=O)C(=O)N[C@@H](CC(N)=O)C(=O)N[C@@H](Cc3cccnc3)C(=O)N(C)CC(N)=O)CCOCC2)NC1=O` [compound 491, IPBPEG2PEG2CO-Pen(3)-N-T-7MeW-K(Ac)-Pen(3)-TMAPF-2Nal-THP-K(Ac)-N-3Pya-Sar-CONH2]: at IL-23R, the IC50 was 8.3 nM. In addition, in data set [1], the EPSA came out at 168 A^2.

Turning to `CC(=O)NCCCC[C@@H]1NC(=O)[C@H](Cc2c[nH]c3c(C)cccc23)NC(=O)[C@H]([C@@H](C)O)NC(=O)[C@H](CC(N)=O)NC(=O)[C@@H](NC(=O)[C@@H](CCCC[N+](C)(C)C)NC(=O)C(F)(F)F)C(C)(C)SSC(C)(C)[C@@H](C(=O)N[C@@H](Cc2ccc(OCCN)cc2)C(=O)N[C@@H](Cc2ccc3ccccc3c2)C(=O)NC2(C(=O)N[C@@H](CCCCNC(C)=O)C(=O)N[C@@H](CC(N)=O)C(=O)N[C@@H](Cc3cccnc3)C(=O)N(C)CC(N)=O)CCOCC2)NC1=O` [compound 80] (Tfa-[dLys(Me3)][Pen]NT[Trp(7-Me)]K(Ac)[Pen][AEF][2Nal][Thp]K(Ac)N[3Pal][Sar]-NH2; disulfide 2-7 (inferred)), the IC50 on IL-23R was found to be 4.3 nM. Also, in data set [1], the EPSA was determined as 157 A^2.

Turning to `CC(=O)NCCCC[C@@H]1NC(=O)[C@H](Cc2c[nH]c3c(C)cccc23)NC(=O)[C@H]([C@@H](C)O)NC(=O)[C@H](CC(N)=O)NC(=O)[C@@H](NC(C)=O)C(C)(C)SSC(C)(C)[C@@H](C(=O)N[C@@H](Cc2ccc(OCCn3cc(CCCC[N+](C)(C)C)nn3)cc2)C(=O)N[C@@H](Cc2ccc3ccccc3c2)C(=O)NC2(C(=O)N[C@@H](CCCCNC(C)=O)C(=O)N[C@@H](CC(N)=O)C(=O)N[C@@H](Cc3cccnc3)C(=O)N(C)CC(N)=O)CCOCC2)NC1=O` [compound 258] (Ac-[Pen]NT[Trp(7-Me)]K(Ac)[Pen]Y(X26)[2Nal][Thp]K(Ac)N[3Pal][Sar]-NH2; disulfide 1-6 (inferred)), the IC50 at IL-23R stood at 6.9 nM. In addition, the EPSA in data set [1] came to 151 A^2.

`CC(=O)NC[C@H](NC(=O)C1(NC(=O)[C@H](Cc2ccc3ccccc3c2)NC(=O)[C@H](Cc2ccc(OCCN(C)C)cc2)NC(=O)[C@H]2NC(=O)[C@H](CCCCN(C)C(C)=O)NC(=O)[C@H](Cc3c[nH]c4c(C)cccc34)NC(=O)[C@H]([C@@H](C)O)NC(=O)[C@H](CC(=O)N(C)C)NC(=O)[C@@H](NC(C)=O)C(C)(C)SSC2(C)C)CCOCC1)C(=O)N[C@@H](CC(N)=O)C(=O)N[C@@H](Cc1cccnc1)C(=O)N(C)CC(=O)N(C)C` [compound 98, MeCO-Pen(3)-N(N(Me)2)-T-7MeW-K(NMeAc)-Pen(3)-AEF(N(Me)2)-2Nal-THP-Dap(Ac)-N-3Pya-Sar-CON(Me)2] (Ac-[Pen]D(NMe2)T[Trp(7-Me)][Lys(Me)](Ac)[Pen]Y(Me2NCH2CH2)[2Nal][Thp][Dap](Ac)N[3Pal][Sar]-NMe2; disulfide 1-6): the IC50 at IL-23R stood at 4.6 nM. In data set [1], the EPSA was found to be 139 A^2.

(Values after patent publication US20260022143A1, “Cyclic Peptide Inhibitors of IL-23” (JANSSEN PHARMACEUTICA NV, priority 2022, published 2026).)
